According to ChEMBL document CHEMBL1201862, “PubChem BioAssay data set” (2004):
Several values for one entry are separate records, joined by “and”; a condition that tells them apart may be missing. Equal values may be shown once.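 A five-concentration, 48-hour dose response in 96-well plates underlies each endpoint, interpolated linearly between surrounding concentrations. GI50 marks 50% less growth.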 Activity calls are given as the source filed them. Rule as the data show it: active = GI50 up to about 1.1 µM and inactive = higher.

Tests used:
Experiment in all cases: growth of human tumour cells (NCI), 48 h
[1] = system: SW-620
[2] = system: SR
[3] = system: UO-31
[4] = system: PC-3
[5] = system: SK-MEL-5
[6] = system: UACC-62
[7] = system: SF-295
[8] = system: BT-549
[9] = system: NCI-H226
[10] = system: M14
[11] = system: SK-OV-3
[12] = system: A549
[13] = system: RPMI-8226
[14] = system: KM12
[15] = system: SN12C
[16] = system: T47D
[17] = system: HOP-92
[18] = system: IGROV-1
[19] = system: LOX IMVI
[20] = system: NCI-H460

| SMILES | GI50 [1] | GI50 [2] | GI50 [3] | GI50 [4] | GI50 [5] | GI50 [6] | GI50 [7] | GI50 [8] | GI50 [9] | GI50 [10] | GI50 [11] | GI50 [12] | GI50 [13] | GI50 [14] | GI50 [15] | GI50 [16] | GI50 [17] | GI50 [18] | GI50 [19] | GI50 [20] |
| --- | --- | --- | --- | --- | --- | --- | --- | --- | --- | --- | --- | --- | --- | --- | --- | --- | --- | --- | --- | --- |
| OC(CC(c1ccccc1)c1ccc(Cl)cc1)c1ccc(Cl)cc1 (stereo not given) | 40.7 µM (inactive) | 27.3 µM (inactive) | 33.3 µM (inactive) | 34.9 µM (inactive) | 32 µM (inactive) | 30.3 µM (inactive) | 34 µM (inactive) | 56.6 µM (inactive) | 31.6 µM (inactive) | 37.3 µM (inactive) | 36.1 µM (inactive) | 37.8 µM (inactive) | 26.9 µM (inactive) | 30.8 µM (inactive) | 25.2 µM (inactive) | 32.6 µM (inactive) | 26.4 µM (inactive) | 35.8 µM (inactive) | 27.9 µM (inactive) | 30.1 µM (inactive) |
| COc1ccc(Cn2c3ccc([N+](=O)[O-])cc3c(=O)n2Cc2ccccn2)cc1 | > 100 µM (inactive) | 63 µM (inactive) | > 100 µM (inactive) | 85.9 µM (inactive) | 24.9 µM (inactive) | 43.9 µM (inactive) | > 100 µM (inactive) | > 100 µM (inactive) | > 100 µM (inactive) | 46 µM (inactive) | > 100 µM (inactive) | > 100 µM (inactive) | 34.5 µM (inactive) | 92.5 µM (inactive) | > 100 µM (inactive) | 18.2 µM (inactive) | 90.6 µM (inactive) | > 100 µM (inactive) | 78.2 µM (inactive) | > 100 µM (inactive) |
| Nc1ccc(C(=O)CC(N)C(=O)O)cc1O (stereo not given) | > 100 µM (inactive) | > 100 µM (inactive) | > 100 µM (inactive) | > 100 µM (inactive) | > 100 µM (inactive) | > 100 µM (inactive) | > 100 µM (inactive) | > 100 µM (inactive) | > 100 µM (inactive) | > 100 µM (inactive) | 31.9 µM (inactive) | > 100 µM (inactive) | > 100 µM (inactive) | > 100 µM (inactive) | > 100 µM (inactive) | > 100 µM (inactive) | > 100 µM (inactive) | > 100 µM (inactive) | > 100 µM (inactive) | > 100 µM (inactive) |
| COc1ccc(-c2c(C#N)c(N)n(C3OCC(OC(C)=O)C(OC(C)=O)C3OC(C)=O)c(=S)c2C#N)cc1 (stereo not given) | > 100 µM (inactive) and 93.5 µM (inactive) | 14.3 µM (inactive) and 14 µM (inactive) | 23.1 µM (inactive) and 22 µM (inactive) | 32.9 µM (inactive) and 34.4 µM (inactive) | 34.8 µM (inactive) | 30.8 µM (inactive) and 40.9 µM (inactive) | 46.9 µM (inactive) and 71.4 µM (inactive) | 20.7 µM (inactive) and 16.4 µM (inactive) | 82.8 µM (inactive) and 77.8 µM (inactive) | 53 µM (inactive) and 49.3 µM (inactive) | 42.8 µM (inactive) and 24 µM (inactive) | 99.5 µM (inactive) and 65.3 µM (inactive) | 25.9 µM (inactive) and 26.4 µM (inactive) | 53.7 µM (inactive) and 50.1 µM (inactive) | 34.6 µM (inactive) and 34.5 µM (inactive) | 14.8 µM (inactive) and 26.7 µM (inactive) | 16.4 µM (inactive) and 11.8 µM (inactive) | 77.1 µM (inactive) and 63.4 µM (inactive) | 30 µM (inactive) and 34 µM (inactive) | 44.1 µM (inactive) and 36.4 µM (inactive) |
| C=C(c1ccccc1)C1ON(C)CCc2cc(OC)c(OC)cc21 (stereo not given) | > 100 µM (inactive) | 88.7 µM (inactive) | 81.5 µM (inactive) | > 100 µM (inactive) | 23.3 µM (inactive) | > 100 µM (inactive) | 58.9 µM (inactive) | > 100 µM (inactive) | > 100 µM (inactive) | > 100 µM (inactive) | > 100 µM (inactive) | > 100 µM (inactive) | > 100 µM (inactive) | > 100 µM (inactive) | > 100 µM (inactive) | 37 µM (inactive) | 34.4 µM (inactive) | > 100 µM (inactive) | 26.2 µM (inactive) | > 100 µM (inactive) |
| CC#CC(O)(C(=O)OCCCN(C)C)C1CCCCC1 (stereo not given) | > 100 µM (inactive) | > 100 µM (inactive) | > 100 µM (inactive) | > 100 µM (inactive) | > 100 µM (inactive) | > 100 µM (inactive) | > 100 µM (inactive) | > 100 µM (inactive) | > 100 µM (inactive) | > 100 µM (inactive) | > 100 µM (inactive) | > 100 µM (inactive) | > 100 µM (inactive) | > 100 µM (inactive) | > 100 µM (inactive) | > 100 µM (inactive) | > 100 µM (inactive) | > 100 µM (inactive) | > 100 µM (inactive) | > 100 µM (inactive) |
| CC(C)CNC(=O)c1c(NC(=O)c2ccccc2)sc2[nH]c(=O)n(-c3ccccc3)c(=O)c12 | > 100 µM (inactive) | 49.4 µM (inactive) | > 71.4 µM (inactive) | > 100 µM (inactive) | > 93.1 µM (inactive) | 64.3 µM (inactive) | 19.6 µM (inactive) | 26.4 µM (inactive) | > 82.6 µM (inactive) | 91.2 µM (inactive) | 23.8 µM (inactive) | > 100 µM (inactive) | > 100 µM (inactive) | > 100 µM (inactive) | > 100 µM (inactive) | 89.3 µM (inactive) | 5.09 µM (inactive) | 74.3 µM (inactive) | > 100 µM (inactive) | > 100 µM (inactive) |
| COc1ccc2nc(NC(=O)/C(C#N)=C/c3ccccc3)sc2c1 | 46.9 µM (inactive) | 4.43 µM (inactive) | 36.8 µM (inactive) | > 61 µM (inactive) | 20.8 µM (inactive) | 23.1 µM (inactive) | 55.6 µM (inactive) | 52.2 µM (inactive) | > 58.2 µM (inactive) | > 54.1 µM (inactive) | > 70.6 µM (inactive) | 59.4 µM (inactive) | 23.4 µM (inactive) | > 41.7 µM (inactive) | 40.6 µM (inactive) | 30.1 µM (inactive) | 32.7 µM (inactive) | 29.4 µM (inactive) | 39.4 µM (inactive) | 38 µM (inactive) |
| COc1ccc2c(c1)CN([C@@H](C)[C@H]1CC[C@H]3[C@@H]4CC[C@H]5C[C@@H](O)CC[C@]5(C)[C@H]4CC[C@]13C)CO2 | 2.92 µM (inactive) | 0.321 µM (active) | 1.81 µM (inactive) | 2.44 µM (inactive) | 1.69 µM (inactive) | 2 µM (inactive) | 1.45 µM (inactive) | 3.38 µM (inactive) | 7.36 µM (inactive) | 1.57 µM (inactive) | 1.7 µM (inactive) | 1.76 µM (inactive) | 0.541 µM (active) | 1.75 µM (inactive) | 8.57 µM (inactive) | 3.56 µM (inactive) | 1.74 µM (inactive) | 3.95 µM (inactive) | 1.58 µM (inactive) | 1.23 µM (inactive) |
| CC12O[C@]3([C@H](C(=O)N4CCOC43C)[C@H]1Cl)[C@H]1O[C@H]12 (stereo not given in full) | > 100 µM (inactive) | 51.4 µM (inactive) | > 100 µM (inactive) | > 100 µM (inactive) | > 100 µM (inactive) | > 100 µM (inactive) | > 100 µM (inactive) | > 100 µM (inactive) | > 100 µM (inactive) | > 100 µM (inactive) | > 100 µM (inactive) | > 100 µM (inactive) | 94.8 µM (inactive) | > 100 µM (inactive) | > 100 µM (inactive) | > 100 µM (inactive) | > 100 µM (inactive) | > 100 µM (inactive) | > 100 µM (inactive) | > 100 µM (inactive) |
| Cc1ccnc2nc(-c3ccc(Cl)cc3)cc(O)c12 | 3.35 µM (inactive) | 1.41 µM (inactive) | 13.1 µM (inactive) | 2.89 µM (inactive) | 3.13 µM (inactive) | 3.01 µM (inactive) | 4.38 µM (inactive) | > 100 µM (inactive) | 5.16 µM (inactive) | 8.63 µM (inactive) | 3.86 µM (inactive) | 9.08 µM (inactive) | 2.94 µM (inactive) | 3.16 µM (inactive) | 8.2 µM (inactive) | > 24.5 µM (inactive) | 2.17 µM (inactive) | 3.01 µM (inactive) | 4.13 µM (inactive) | 3.85 µM (inactive) |
| COc1ccc(C2=NN(C(=N)S)C(c3ccccc3)C2)cc1 (stereo not given) | 52.2 µM (inactive) | 23.2 µM (inactive) | 43.4 µM (inactive) | 34 µM (inactive) | 16.7 µM (inactive) | 35.3 µM (inactive) | 30.3 µM (inactive) | 38.2 µM (inactive) | 34.6 µM (inactive) | 41 µM (inactive) | 46.6 µM (inactive) | 34.8 µM (inactive) | 23.6 µM (inactive) | 35.7 µM (inactive) | 39.3 µM (inactive) | 29.9 µM (inactive) | 30.5 µM (inactive) | 48.4 µM (inactive) | 38.3 µM (inactive) | 30 µM (inactive) |
| Cc1ccc(S(=O)(=O)Oc2coc(CO)cc2=O)cc1 | 12.3 µM (inactive) | 3.82 µM (inactive) | 14.1 µM (inactive) | 15.1 µM (inactive) | 13.5 µM (inactive) | 11.9 µM (inactive) | 16 µM (inactive) | 13.8 µM (inactive) | 33.1 µM (inactive) | 13.1 µM (inactive) | 17.1 µM (inactive) | 14.8 µM (inactive) | 3.97 µM (inactive) | 4.86 µM (inactive) | 12.7 µM (inactive) | 13.3 µM (inactive) | 16 µM (inactive) | 9.29 µM (inactive) | 3.05 µM (inactive) | 14.4 µM (inactive) |
